Results on two compounds are retold here after patent publication US10836745B2, “Cocrystal, production method thereof, and medicament containing cocrystal” (Takeda Pharmaceutical Company Limited, priority 2015, dated 2020).

Converted amounts (≈) assume the structure as drawn. Read-outs that look alike come from different tables or passages of the source.

Series [1] in a line: Measurement of dissolution rate (intrinsic dissolution test). The class given is physicochemical. The following applies: 7 mm disc, 200 rpm, second fluid containing cholic acid, 37° C. The protocol:
According to the method described in “2.6. Intrinsic dissolution test” on page 231 of Tsutsumi S., Int. J. Pharm., 421 (2011) 230-236, the dissolution rate of the crystals and cocrystals of compound (A) was measured. To be specific, the crystals or cocrystals of compound (A) (20 mg) was pressurized by a hand press tableting machine at 20 MPa for 10 min to give a 7 mm diameter disc. The prepared disc was adhered to the inside of a rotating shaft of the United States Pharmacopeia dissolution test 1 (basket), and inserted, while rotating at 200 rpm, in the second fluid (250 mL) of the Japanese Pharmacopoeia disintegration test containing cholic acid heated to 37° C. The second fluid containing the crystals or cocrystals was collected by 0.5 mL at 1 min intervals, and analyzed by HPLC. From a chromatogram comparison with the standard solution (0.05 mg/mL), the concentration of the crystals or the cocrystals was calculated, and the dissolution rate thereof was calculated.

Series [2] is described as follows: Measurement of solubility (shake-flask method). The class given is physicochemical. The conditions noted are these: thermodynamic from solid, 37° C., shaken 2 hr. The protocol:
According to the method described in “Thermodynamic Solubility Measurement by the Shake-Flask Method” on page 1229 of Nakashima S., Chem. Pharm. Bull., 61(12) 1228-1238 (2013), the solubility of the crystals and cocrystals of compound (A) was measured. To be specific, the first fluid (JP1), the second fluid (JP2) and the second fluid containing 20 mM sodium glycochenodeoxycholate (JP2/GCDC) of the Japanese Pharmacopoeia disintegration test were added at 400 μL each to the crystals or cocrystals (0.4 mg) of compound (A), and the mixture was heated to 37° C. under air atmosphere, and shaken by a vortex mixer for 2 hr at 500 rpm. After shaking, the mixture was passed through a 0.45 μm PVDF filter, and the filtrate was analyzed by HPLC. From a chromatogram comparison with the standard solution (0.1 mg/mL), the solubility of the crystals of the single compound and the cocrystals was calculated.

Protocol for physchem: The base pKa of the compound (A) and the acid pKa of the gentisic acid were measured using a Sirius T3 titrator manufactured by Sirius. The base pKa means an acid dissociation constant from the protonated state, and the acid pKa means the acid dissociation constant of the acid itself.

In the case of `C=CC(=O)N1CC[C@H](Oc2nc(-c3n[nH]c(=O)[nH]3)cc3ccccc23)C1` [compound (A), (S)-3-(1-((1-acryloylpyrrolidin-3-yl)oxy)isoquinolin-3-yl)-1H-1,2,4-triazol-5(4H)-one], the dissolution rate in series [1] is on record as 0.2 μg/mm^2/min. For the same compound, the solubility at 2 h in series [2] (pH 1.2, simulated gastric fluid, first fluid (JP1) of Japanese Pharmacopoeia disintegration test, read-out: solubility JP1) is 1.5 µg/mL (≈ 4.27 µM); in series [2] (pH 6.8, aqueous buffer, second fluid (JP2) of Japanese Pharmacopoeia disintegration test, read-out: solubility JP2), 1.5 µg/mL (≈ 4.27 µM); in series [2] (pH 6.8, fassgf or other biorelevant, second fluid containing 20 mM sodium glycochenodeoxycholate, read-out: solubility JP2/GCDC), 35.6 µg/mL (≈ 101 µM).

As usually defined, the pKa is the negative logarithm of the acid dissociation constant. `O=C(O)c1cc(O)ccc1O` [gentisic acid] returned a pKa in “physchem” of 3.23.
